In publication PMC5889877, “Ex Vivo Cardiotoxicity of Antineoplastic Casiopeinas Is Mediated through Energetic Dysfunction and Triggered Mitochondrial-Dependent Apoptosis” (Oxidative Medicine and Cellular Longevity, 2018):
Marks after values point to notes of the source that are not given here.

Key:
isolated rat hearts [1] = experiment: Myocardial oxygen consumption and energetic metabolites (ATP, PCr) in perfused hearts; details: Cas at IC50, Doxo 5 μM
Description: (§1) Male Wistar rats (250–300 g) were injected with heparin (10^3 U·kg^−1, i.p.) 20 minutes prior to anesthesia with pentobarbital (100 mg·kg^−1, i.p.). When bilateral corneal reflex was absent, the heart was excised through an abdominal approach. Then, the ascending aorta was visualized and cut and the heart was placed in a cardioplegic solution. To avoid ischemia, the time between cutting the diaphragm to placing the heart in the solution was less than 60 seconds. The hearts were mounted in accordance with the Langendorff model and perfused at a constant flow (12 ml·min^−1) with a Krebs-Henseleit buffer as previously described. A latex balloon connected to a pressure transducer filled with saline solution was inserted into the left ventricle after establishing autonomous contraction. The pulmonary artery was cannulated and connected to a closed chamber using a Clark-type oxygen electrode (Yellow Springs Instruments, Yellow Springs, Ohio) to measure myocardial oxygen consumption (MVO2) in the coronary effluent. The rate of MVO2 was calculated as the difference between the concentration in the K-H buffer before (100%) and after perfusion. Data Trax software (WPI, Sarasota, Florida) was used for continuous recording of the heart rate (HR), left ventricular pressure (LVP), MVO2, and maximum positive and negative derivative of left ventricular pressure (±dP/dt). The baseline was established during 10–15 minutes of K-H perfusion. Each concentration of Cas or Doxo remained in the heart for 30 min. Hearts in the control group were perfused with K-H buffer during the whole experimental time. Rate pressure product (RPP = HR × LVP) and cardiac efficiency ([…]) were calculated as previously reported.
(§2) To measure the energetic metabolites ATP, phosphocreatine (PCr), and aconitase activity at the end of the perfusion protocols, samples were prepared as follows: the hearts were removed from the perfusion system by cutting the aorta and immediately flash-frozen with liquid N2, weighed, and stored at −80°C. Afterward, the hearts were homogenized in ice-cold buffer containing 250 mM sucrose, 10 mM HEPES, and 1 mM EDTA (pH 7.4). For enzymatic determination, aliquots of the homogenate were immediately frozen in liquid nitrogen and stored at −80°C. Quantification of ATP and PCr was carried out in a HPLC system with a dual-pump gradient (Waters Chromatography, Toronto, Canada) as previously described.

caspases 3 and 7 = experiment: Caspase-Glo 3/7 activity in cell lysates; assay type: cell-based, rat; details: cardiomyocytes treated at IC50, compared to Doxo or the control
Description: (§3) Ventricular cardiomyocytes were obtained from male Wistar rats (250–300 g) by digestion with collagenase type II as previously described. Cells were washed in Tyrode solution (mM): 130 NaCl, 5.4 KCl, 0.4 NaH2PO4, 0.5 MgCl2, 25 HEPES, and 5 glucose with pH 7.4. After isolation, cells were cultivated at a density of 3.2 × 10^3 viable cells/well in 96-well plates pretreated with laminin in M-199 medium supplemented in mM with 5 taurine, 5 creatine, 2 L-carnitine, 2.5 sodium pyruvate, and penicillin-streptomycin at 100 U·ml^−1 and 100 μg·ml^−1, respectively, at 37°C, with 5% CO2 and 95% air. After incubation for three hours, varying concentrations of Cas were tested in triplicate, exposing the myocytes during 24 hours to each treatment. At the end of the incubation period, the cytotoxicity of Cas was measured using the Alamar Blue viability test (Life Technologies, Carlsbad, CA, USA). Release of cytoplasmic lactate dehydrogenase (LDH) was determined using CytoTox-ONE homogeneous membrane integrity kit (Promega Madison, WI, USA). The activity of caspases 3/7 and caspase 9 was measured in cell lysates using caspase-Glo 3/7 and caspase-Glo 9 test luminescent assay (Promega, Madison, WI, USA), respectively. The cardiomyoblast cell line H9c2 (ATCC CRL-1446) was maintained using standard procedures in DMEM supplemented with 10% fetal bovine serum prior to the oxidative stress experiments.

caspase 9 = experiment: Caspase-Glo 9 activity in cell lysates; assay type: cell-based, rat; details: cardiomyocytes treated at IC50
Description: as §3

[2] = tested on: mitochondria isolated from Cas-treated hearts; experiment: Respiratory activity of mitochondria isolated from treated hearts (Clark-type oxygen electrode); parameters: species or system rat; details: for State 4 respiration: 10 mM glutamate-malate; for Respiratory control / State 3 respiration: malate/glutamate; for State 3 respiration: after 100 μM ADP; for decrease in state 3 respiration rate / reduction in maximal respiration: versus control
Description: (§4) To measure mitochondrial oxygen consumption, mitochondrial membrane potential, and Ca^2+ uptake, cytochrome c samples were prepared as follows: after perfusion, heart tissue from the left ventricle was minced and homogenized in cold mitochondrial isolation medium (in mM: 125 KCl, 1 EDTA, and 10 HEPES-HCl; pH 7.3). The mitochondrial fraction was obtained by differential centrifugation using the protease Nagarse, as previously described. Mitochondrial oxygen consumption was measured using a Clark-type oxygen electrode. The experiments were carried out in respiration assay medium containing 125 KCl, 10 HEPES-HCl, and 3 KH2PO4 (in mM) with pH 7.3. State 4 respiration was measured in the presence of 10 mM glutamate-malate, and state 3 respiration was evaluated after addition of 100 μM ADP. Maximal respiration was determined with 0.08 μM of carbonyl cyanide m-chlorophenyl hydrazine (CCCP). The mitochondrial membrane potential was measured by fluorometry using 5 μM safranine. Mitochondrial Ca^2+ uptake was determined with the metalochromic indicator, Arsenazo III, or calcium green 5N (5N-CG), using a medium containing 50 μM Arsenazo or 10 μM 5N-CG, 10 mM succinate plus rotenone (0.1 μg·ml^−1), 200 μM ADP, and 0.25 μg oligomycin A. Pulses of 10 nmol Ca^+2 were added every 3 minutes to reach a Ca^+2 release due to MPT opening. Mitochondrial cytochrome c quantification from Cas-treated hearts was performed using Western blot analysis as described previously. The blots were developed with Luminata crescendo substrate (Merck Millipore, Darmstadt, Germany) and detected with VisionWorks LS-UVP Chimio System (BioSpectrum 415 Imaging System, Cambridge, UK).

cytochrome c = experiment: Mitochondrial cytochrome c content by Western blot; parameters: species or system rat; details: heart mitochondria after 30 min perfusion at IC50
Description: as §4, with “Mitochondrial cytochrome c quantification from Cas-treated hearts was performed using Western blot analysis as described previously. The blots were developed with Luminata crescendo substrate (Merck Millipore, Darmstadt, Germany) and detected with VisionWorks LS-UVP Chimio System (BioSpectrum 415 Imaging System, Cambridge, UK).” left out

[3] = tested on: adult rat ventricular myocytes; experiment: Cardiomyocyte viability, Alamar Blue; assay type: cell-based; details: 24 h treatment, read-out: LD50 (IC50) for cardiomyocyte viability
Description: as §3

[4] = tested on: mitochondrial permeability transition pore; experiment: Mitochondrial Ca2+ retention capacity (MPT opening); parameters: species or system rat; details: for protective effect of CsA on Ca2+ retention capacity: mitochondria from treated hearts, CsA 0.5 μM added in vitro
Description: as §4

isolated cardiomyocytes = experiment: LDH release (CytoTox-ONE); assay type: cell-based, rat; details: cardiomyocytes treated at IC50 (II-gly 2 μM, Doxo 10 μM)
Description: as §3

isolated rat hearts [5] = experiment: Langendorff-perfused isolated rat heart: mechanical performance (RPP, HR, ±dP/dt, cardiac efficiency); details: for t 0.5, time for half-inhibition of RPP / IC50: isolated rat heart; for t 0.5, time for half-inhibition of RPP: 5 μM; for heart rate (HR) reduction: perfused at 5 μM; for IC50: read-out: IC50, half-maximal inhibitory concentration for RPP (heart contractile function), at 30 min perfusion
Description: as §1

aconitase = experiment: Mitochondrial aconitase activity in heart homogenates; details: ex vivo heart, Cas at IC50, Doxo 5 μM
Description: as §2

subcutaneous tumors = details: nude mice ref 29; cited from earlier work
[6] = tested on: α-ketoglutarate dehydrogenase; parameters: method as in PMID 26739598; details: cited from earlier work

SMILES: Cc1ccnc2c1ccc1c(C)ccnc12.NCC(=O)[O-].O.O.O=[N+]([O-])[O-].[Cu+2] [Cas II-gly, Aqua(4,7-dimethyl-1,10-phenanthroline)(glycinate)copper(II)nitrate]
- PCr/ATP ratio (isolated rat hearts [1]): augmented
- increase in activity of caspases 3 and 7 (caspases 3 and 7): ~ 4 fold
- increase in caspase 9 activity (caspase 9): 1.7 fold
- State 4 respiration [2]: 13.0 ± 5.0 nmol O min^−1·mg^−1
- Respiratory control [2]: 1.6 ± 0.3^∗
- State 3 respiration [2]: 20.2 ± 7.3^∗ nmol O min^−1·mg^−1
- decrease in state 3 respiration rate [2]: 77%
- reduction in maximal respiration [2]: 82%
- mitochondrial cytochrome c content (cytochrome c): reduction of cytochrome c
- IC50 [3]: 2 ± 0.5 µM
- decrease of mitochondrial Ca2+ retention capacity ([4]; mitochondria from hearts treated at IC50, versus control): 46.5%
- protective effect of CsA on Ca2+ retention capacity [4]: 60%
- increase in LDH release compared to the control (isolated cardiomyocytes): 3.5 fold
- decrease of cardiac efficiency (CE) (isolated rat hearts [5]; at IC50 for RPP): 23%
- +dP/dt × 1000 (contraction rate) (isolated rat hearts [5]; hearts treated at the IC50): 2.0 ± 0.13^∗ mmHg·s^−1
- Cardiac efficiency (isolated rat hearts [5]; hearts treated at the IC50): 4.8 ± 0.81 RPP · MVO2 ^−1
- −dP/dt × 1000 (relaxation rate) (isolated rat hearts [5]; hearts treated at the IC50): −0.7 ± 0.09^∗ mmHg·s^−1
- t 0.5, time for half-inhibition of RPP (isolated rat hearts [5]): 29 ± 1.0^d min
- heart rate (HR) reduction (isolated rat hearts [5]): not affected
- IC50 (isolated rat hearts [5]): 5.5 ± 0.5 µM

SMILES: CC(=O)C=C(C)[O-].Cc1ccnc(-c2cc(C)ccn2)c1.O.O.O=[N+]([O-])[O-].[Cu+2] [Cas III-ia, Aqua(4,4-dimethyl-2,2′bipyridine)(acetylacetonate)copper(II)nitrate]
- aconitase activity (aconitase): decreased
- reduction of the volume of subcutaneous tumors (subcutaneous tumors): 81%
- PCr levels (isolated rat hearts [1]): decreased
- change in MVO2 (isolated rat hearts [1]): no changes
- decrease in ATP content (isolated rat hearts [1]): 37%
- α-ketoglutarate dehydrogenase activity compared with III-Ea [6]: twofold decrease
- increase in activity of caspases 3 and 7 (caspases 3 and 7): ~ 4 fold
- Max. respiration ([2]; 0.08 μM CCCP): 12.3 ± 2.6^∗ nmol O min^−1·mg^−1
- State 4 respiration [2]: 15.6 ± 2.6 nmol O min^−1·mg^−1
- Respiratory control [2]: 1.3 ± 0.1^∗
- State 3 respiration [2]: 18.5 ± 0.6^∗ nmol O min^−1·mg^−1
- decrease in state 3 respiration rate [2]: 78%
- reduction in maximal respiration [2]: 87%
- mitochondrial cytochrome c content (cytochrome c): reduction of cytochrome c
- protective effect of CsA on Ca2+ retention capacity [4]: 28%
- +dP/dt × 1000 (contraction rate) (isolated rat hearts [5]; hearts treated at the IC50): 2.4 ± 0.20^∗ mmHg·s^−1
- −dP/dt × 1000 (relaxation rate) (isolated rat hearts [5]; hearts treated at the IC50): −1.0 ± 0.16^∗ mmHg·s^−1
- t 0.5, time for half-inhibition of RPP (isolated rat hearts [5]): 49 ± 0.8^a,b,c min
- heart rate (HR) reduction (isolated rat hearts [5]): not affected
- IC50 (isolated rat hearts [5]): 10 ± 0.7 µM
